Some test systems named below: CHRF288-11; ML-2; CMK; CMS; MV4-11; M07e; U937; MOLM-13.
Design in all cases: species or system AML cell lines (8); Primary HTS, single concentration about 10 uM, Cell Titer Glo viability; log10 luminescence, per cent inhibition relative to cycloheximide control
Holding throughout (settings): 72 h, inhibitor
(In general: Cellular ATP, detected with luciferase, serves as a proxy for viable cell number.)

Setting [1] is: relative to cycloheximide control, log10 luminescence.

Structures are written as SMILES. Like-named read-outs stand apart in the source and are kept apart here.

Consider `Cc1ccc(NC(=O)CC2CC2)cc1-c1ccc(C(=O)NCC2CC2)cc1` [SJ000573098-1, R7387/20/3], for which the CHRF288-11 %inh with CHRF288-11 (setting [1]) was 2.428%. Besides, in the test with ML-2 (setting [1]), the ML-2 %inh is reported as -2.089%. For the same compound, the CMK %inh with CMK (setting [1]) was 4.183%. Besides, the CMS %inh in the test on CMS (setting [1]) stood at 1.599%. For the same compound, in the test with MV4-11 (setting [1]), the MV4-11 %inh is 0.255%. The M07e %inh in the test on M07e (setting [1]) was -0.8105%. For the same compound, the U937 %inh in the test with U937 (setting [1]) came to 1.321%. Besides, in the test on MOLM-13 (setting [1]), the MOLM-13 %inh is recorded as 0.2753%.

Turning to `CC[C@H]1OC(=O)[C@H](C)[C@@H](O[C@H]2C[C@@](C)(OC)[C@@H](O)[C@H](C)O2)[C@H](C)[C@@H](O[C@@H]2O[C@H](C)C[C@H](N(C)C)[C@H]2O)[C@](C)(O)C[C@@H](C)[C@@H]2N[C@@H](COCCOC)O[C@H]([C@H]2C)[C@]1(C)O` [SJ000286040-5, DIRITHROMYCIN], the CHRF288-11 %inh in the test on CHRF288-11 (10 µM) is recorded as 3.137%. For the same compound, the ML-2 %inh in the test on ML-2 (10 µM) is -0.7146%. Besides, the CMK %inh in the test with CMK (10 µM) is reported as -5.982%. In addition, the CMS %inh with CMS (10 µM) is given as -0.1114%. Moreover, in the test on MV4-11 (10 µM), the MV4-11 %inh is recorded as -3.548%. For the same compound, the M07e %inh in the test with M07e (10 µM) is on record as -2.366%. The U937 %inh in the test on U937 (10 µM) is reported as -1.919%. In the test with MOLM-13 (10 µM), the MOLM-13 %inh is given as -2.496%.

Regarding `CC1(OC(=O)C2CCCC2)C(=O)C=C2C=C(c3ccsc3)OC=C2C1=O` (stereo not shown) [SJ000580213-1], in the test on CHRF288-11 (setting [1]), the CHRF288-11 %inh amounted to 1.734%. Moreover, the ML-2 %inh with ML-2 (setting [1]) was -0.1394%. The CMK %inh with CMK (setting [1]) was 0.9758%. Further, the CMS %inh with CMS (setting [1]) is listed as 3.861%. Besides, the MV4-11 %inh with MV4-11 (setting [1]) is reported as 0.3204%. Further, in the test on M07e (setting [1]), the M07e %inh was -2.766%. Besides, the U937 %inh in the test on U937 (setting [1]) was 2.696%. Also, in the test on MOLM-13 (setting [1]), the MOLM-13 %inh is 3.751%.

On to `CCS(=O)(=O)c1ccc(OC)c(Nc2ncc(-c3ccccc3Cl)o2)c1` [SJ000573291-1, U15747/47/1], for which the CHRF288-11 %inh in the test on CHRF288-11 (setting [1]) is given as -4.64%. For the same compound, the ML-2 %inh in the test on ML-2 (setting [1]) is given as -1.239%. Also, the CMK %inh in the test on CMK (setting [1]) is reported as -1.56%. Further, in the test on CMS (setting [1]), the CMS %inh was -1.399%. Further, the MV4-11 %inh in the test on MV4-11 (setting [1]) turned out to be 15.16%. Further, the M07e %inh in the test on M07e (setting [1]) was -1.838%. In addition, the U937 %inh in the test on U937 (setting [1]) came to 1.267%. Further, the MOLM-13 %inh with MOLM-13 (setting [1]) is -0.8597%.

Regarding `Fc1ccc(-c2ncn(C3CCNCC3)c2-c2ccnc(Oc3ccc(Oc4ccccc4)cc3)n2)cc1` [SJ000573126-1, JB27026-104B1], in the test on CHRF288-11 (setting [1]), the CHRF288-11 %inh was 38.59%. Also, the ML-2 %inh in the test on ML-2 (setting [1]) amounted to 34.19%. The CMK %inh in the test with CMK (setting [1]) is listed as 18.72%. The CMS %inh in the test on CMS (setting [1]) is listed as 2.898%. In addition, the MV4-11 %inh in the test on MV4-11 (setting [1]) is 29.08%. Further, the M07e %inh in the test with M07e (setting [1]) is listed as 10.64%. The U937 %inh in the test with U937 (setting [1]) turned out to be 16.46%. Also, the MOLM-13 %inh in the test on MOLM-13 (setting [1]) is reported as 28.44%.

On to `CCn1nc(C(=O)O)c(=O)c2cc3c(cc21)OCO3` [SJ000285711-7, CINOXACIN], for which the CHRF288-11 %inh in the test with CHRF288-11 (setting [1]) is reported as 0.6656%. Also, the ML-2 %inh in the test on ML-2 (setting [1]) was -1.975%. Moreover, in the test on CMK (setting [1]), the CMK %inh turned out to be 0.4853%. The CMS %inh in the test with CMS (setting [1]) amounted to 0.852%. Further, in the test on MV4-11 (setting [1]), the MV4-11 %inh came to 3.259%. Also, the M07e %inh in the test with M07e (setting [1]) is recorded as 5.282%. Moreover, the U937 %inh in the test with U937 (setting [1]) was 2.404%. Further, the MOLM-13 %inh in the test on MOLM-13 (setting [1]) was 1.821%.

In the case of `Cn1c(=O)c(Oc2ccccc2F)cc2cnc(NC3CCOCC3)nc21` [SJ000581061-1], the CHRF288-11 %inh with CHRF288-11 (setting [1]) was determined as 11.16%. In addition, the ML-2 %inh with ML-2 (setting [1]) is 3.823%. In the test with CMK (setting [1]), the CMK %inh is listed as -2.528%. Besides, the CMS %inh in the test with CMS (setting [1]) is listed as 1.876%. Besides, the MV4-11 %inh in the test on MV4-11 (setting [1]) came out at 0.7758%. Further, the M07e %inh in the test with M07e (setting [1]) is recorded as 6.564%. In addition, the U937 %inh in the test with U937 (setting [1]) was found to be 1.19%. For the same compound, the MOLM-13 %inh with MOLM-13 (setting [1]) is reported as -1.076%.

As to `CC(=O)O[C@]1(C(C)=O)CC[C@H]2[C@@H]3C=C(Cl)C4=CC(=O)[C@@H]5C[C@@H]5[C@]4(C)[C@H]3CC[C@@]21C` [SJ000286483-6, CYPROTERONE ACETATE], the CHRF288-11 %inh in the test with CHRF288-11 (setting [1]) was -0.8844%. Besides, the ML-2 %inh in the test on ML-2 (setting [1]) is -2.366%. Moreover, the CMK %inh in the test with CMK (setting [1]) is -1.818%. Besides, in the test on CMS (setting [1]), the CMS %inh stood at 2.38%. The MV4-11 %inh in the test on MV4-11 (setting [1]) came out at 2.562%. For the same compound, the M07e %inh in the test on M07e (setting [1]) is on record as 0.443%. For the same compound, the U937 %inh with U937 (setting [1]) is recorded as 1.732%. Also, the MOLM-13 %inh in the test with MOLM-13 (setting [1]) is reported as -1.163%.

Source of the values: paper PMC6522510 (Nature Communications, 2019).
